According to ChEMBL document CHEMBL5506024, “Multitarget μ-Opioid Receptor Agonists─Neuropeptide FF Receptor Antagonists Induce Potent Antinociception with Reduced Adverse Side Effects” (J Med Chem, 2024):
Calls of active or inactive are those of the source. The calls are words filed in the database; no cut-off is given here.

Tests used:
[1] = Induction of naltrexone-precipitated withdrawal syndrome in sc dosed C57BL/6N mouse assessed as paw tremor administered for 8 days followed by naltrexone addition on day 9 after 2 hrs post last dose and measured after 30 mins; type: toxicity, organism-based; details: in vivo, 216.5 h, time 12990 min
[2] = Induction of naltrexone-precipitated withdrawal syndrome in sc dosed C57BL/6N mouse assessed as high jumping score administered for 8 days followed by naltrexone addition on day 9 after 2 hrs post last dose and measured after 30 mins; type: toxicity, organism-based; details: in vivo, 216.5 h, time 12990 min
[3] = biological target: T1, Prolactin-releasing peptide receptor (Homo sapiens) (UniProt P49683); experiment: Agonist activity at human GPR10 expressed in CHO cells assessed as intracellular calcium release upto 10 uM by Fluo-4 AM dye based calcium mobilization assay; type: functional, cell-based
T1 sequence (whole entry): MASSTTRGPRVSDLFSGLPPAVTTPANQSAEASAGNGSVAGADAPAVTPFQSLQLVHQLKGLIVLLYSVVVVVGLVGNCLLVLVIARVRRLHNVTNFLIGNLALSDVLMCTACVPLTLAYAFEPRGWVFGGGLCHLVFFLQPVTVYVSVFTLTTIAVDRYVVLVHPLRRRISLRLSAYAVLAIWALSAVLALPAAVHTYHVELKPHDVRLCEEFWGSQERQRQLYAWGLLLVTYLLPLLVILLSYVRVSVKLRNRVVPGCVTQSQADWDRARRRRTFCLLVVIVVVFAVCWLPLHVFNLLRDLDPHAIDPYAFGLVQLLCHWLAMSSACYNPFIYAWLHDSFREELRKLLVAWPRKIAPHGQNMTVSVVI

[4] = biological target: T2, Neuropeptide FF receptor 1 (Homo sapiens, UniProt Q9GZQ6); experiment: Displacement of [125I]-1DMeNPFF from human NPFFR1 expressed in CHO cell membrane at 0.5 uM incubated for 1 hr by Topcount counting method relative to control; type: cell membranes
[5] = Induction of motor coordination impairment in C57BL/6 mouse at 10.5 mg/kg, sc by rotarod assay; type: toxicity, organism-based; details: in vivo
[6] = Cmax in mouse at 10 mg/kg, sc measured upto 24 hrs by LC-MS/MS analysis; type: ADME, organism-based; details: in vivo
Mu-type opioid receptor [7] = biological target: T3, Mu-type opioid receptor (Homo sapiens, UniProt P35372); experiment: Agonist activity at human MOP expressed in HEK293 cells coexpressing GloSensor-20F assessed as inhibition of forskolin-induced cAMP accumulation; type: functional, cell-based
[8] = Induction of naltrexone-precipitated withdrawal syndrome in sc dosed C57BL/6N mouse assessed as wet dog shake counts administered for 8 days followed by naltrexone addition on day 9 after 2 hrs post last dose and measured after 30 mins; type: toxicity, organism-based; details: in vivo, 216.5 h, time 12990 min
[9] = biological target: T4, Neuropeptide FF receptor 2 (Homo sapiens, UniProt Q9Y5X5); experiment: Displacement of [125I]-1DMeNPFF from human NPFFR2 expressed in CHO cell membrane at 0.05 uM incubated for 1 hr by Topcount counting method relative to control; type: cell membranes; details: filed as antagonist
[10] = biological target: KiSS-1 receptor (Homo sapiens) (UniProt Q969F8); experiment: Agonist activity at human GPR54 expressed in CHO cells assessed as intracellular calcium release upto 10 uM by Fluo-4 AM dye based calcium mobilization assay; type: functional, cell-based
[11] = biological target: T5, Pyroglutamylated RF-amide peptide receptor (Homo sapiens) (UniProt Q96P65); experiment: Antagonist activity at human GPR103 expressed in CHO cells assessed as intracellular calcium release upto 10 uM by Fluo-4 AM dye based calcium mobilization assay; type: functional, cell-based
T5 sequence (whole entry): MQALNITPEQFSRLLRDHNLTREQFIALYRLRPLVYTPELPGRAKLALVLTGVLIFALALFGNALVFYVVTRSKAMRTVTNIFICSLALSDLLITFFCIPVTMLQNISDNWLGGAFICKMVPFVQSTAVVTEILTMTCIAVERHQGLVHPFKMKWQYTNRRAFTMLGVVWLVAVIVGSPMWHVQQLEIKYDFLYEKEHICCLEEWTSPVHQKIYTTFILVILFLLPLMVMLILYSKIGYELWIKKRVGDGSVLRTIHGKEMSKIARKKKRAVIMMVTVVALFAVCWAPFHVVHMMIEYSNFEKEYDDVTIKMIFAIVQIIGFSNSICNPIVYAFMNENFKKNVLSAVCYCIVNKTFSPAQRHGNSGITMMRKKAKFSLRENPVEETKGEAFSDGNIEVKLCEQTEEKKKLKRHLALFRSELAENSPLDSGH

Mus musculus [12] = experiment: Antinociceptive activity in mouse at 2.5 to 10 mg/kg, sc measured after 24 hrs by tail immersion test; type: functional, organism-based; details: dose 2.5-10 mg/kg
Mu-type opioid receptor [13] = biological target: T3, Mu-type opioid receptor; experiment: Agonist activity at human MOP expressed in HEK293 cells coexpressing GloSensor-20F assessed as inhibition of forskolin-induced cAMP accumulation relative to control; type: functional, cell-based; details: filed as agonist
[14] = Induction of naltrexone-precipitated withdrawal syndrome in sc dosed C57BL/6N mouse assessed as diarrhea administered for 8 days followed by naltrexone addition on day 9 after 2 hrs post last dose and measured after 30 mins; type: toxicity, organism-based; details: in vivo, 216.5 h, time 12990 min
Mu-type opioid receptor [15] = biological target: T3, Mu-type opioid receptor; experiment: Agonist activity at human Rluc8-tagged MOP expressed in HEK293 cells coexpressing eYFP-tagged beta-arrestin-2 assessed as beta-arrestin-2 recruitment incubated for 5 mins by luminometer analysis; type: functional, cell-based; details: read-out: EC50
[16] = biological target: T4, Neuropeptide FF receptor 2; experiment: Displacement of [125I]-1DMeNPFF from human NPFFR2 expressed in CHO cell membrane incubated for 1 hr by Topcount counting method; type: cell membranes
[17] = Toxicity in C57BL/6N mouse assessed as induction of respiratory depression by measuring decrease in pulmonary rate at 3.2 to 31.8 mg/kg, sc by plethysmography; type: organism-based; details: in vivo, dose 3.2-31.8 mg/kg
[18] = Tmax in mouse at 10 mg/kg, sc measured upto 24 hrs by LC-MS/MS analysis; type: ADME, organism-based; details: in vivo
[19] = biological target: Nociceptin receptor (Homo sapiens) (UniProt P41146); experiment: Antagonist activity at human NOR expressed in HEK293 cells assessed as forskolin-induced cAMP accumulation in presence of IBMX; type: functional, cell-based; details: filed as antagonist
[20] = biological target: Delta-type opioid receptor (Homo sapiens) (UniProt P41143); experiment: Agonist activity at human DOP expressed in HEK293 cells assessed as inhibition of forskolin-induced cAMP accumulation; type: functional, cell-based; details: filed as agonist
Mu-type opioid receptor [21] = biological target: T3, Mu-type opioid receptor; experiment: Agonist activity at human Rluc8-tagged MOP expressed in HEK293 cells coexpressing eYFP-tagged beta-arrestin-2 assessed as beta-arrestin-2 recruitment incubated for 5 mins by luminometer analysis relative to control; type: functional, cell-based
[22] = biological target: T6, Kappa-type opioid receptor (Homo sapiens, UniProt P41145); experiment: Partial agonist activity at human KOR expressed in HEK293 cells assessed as forskolin-induced cAMP accumulation in presence of IBMX; type: functional, cell-based; details: filed as partial agonist
[23] = biological target: KiSS-1 receptor (Homo sapiens) (UniProt Q969F8); experiment: Antagonist activity at human GPR54 expressed in CHO cells assessed as intracellular calcium release upto 10 uM by Fluo-4 AM dye based calcium mobilization assay; type: functional, cell-based
[24] = biological target: T2, Neuropeptide FF receptor 1; experiment: Antagonist activity at human NPFFR1 expressed in CHO cell membrane assessed as inhibition of NPVF induced cAMP response at 5 uM incubated for 1 hr by Topcount counting method relative to control; type: functional, cell membranes; set-up: scale not given: the % may be the effect or the level left
[25] = biological target: T4, Neuropeptide FF receptor 2; experiment: Antagonist potency at human NPFFR2 expressed in CHO cell membrane assessed as inhibition of NPVF induced cAMP response incubated for 1 hr by Topcount counting method; type: functional, cell membranes; details: read-out: pA2 (converted)
Mus musculus [26] = experiment: Antinociceptive activity in mouse at 4.2 umol/kg, sc administered chronically and measured on day 8; type: functional, organism-based; details: dose 4.2 µmol/kg
[27] = biological target: T5, Pyroglutamylated RF-amide peptide receptor (Homo sapiens); experiment: Agonist activity at human GPR103 expressed in CHO cells assessed as intracellular calcium release upto 10 uM by Fluo-4 AM dye based calcium mobilization assay; type: functional, cell-based
Mus musculus [28] = experiment: Antinociceptive activity in mouse at 4.2 umol/kg, sc administered chronically and measured on day 1; type: functional, organism-based; details: dose 4.2 µmol/kg
[29] = biological target: T2, Neuropeptide FF receptor 1; experiment: Displacement of [125I]-1DMeNPFF from human NPFFR1 expressed in CHO cell membrane incubated for 1 hr by Topcount counting method; type: cell membranes
[30] = biological target: T1, Prolactin-releasing peptide receptor (Homo sapiens); experiment: Antagonist activity at human GPR10 expressed in CHO cells assessed as intracellular calcium release upto 10 uM by Fluo-4 AM dye based calcium mobilization assay; type: functional, cell-based
[31] = Half life in mouse at 10 mg/kg, sc measured upto 24 hrs by LC-MS/MS analysis; type: ADME, organism-based; details: in vivo
Mus musculus [32] = experiment: Antinociceptive activity in mouse at 4.2 umol/kg, sc administered daily and measured on day 1 and 8; type: functional, organism-based; details: dose 4.2 µmol/kg
Mus musculus [33] = experiment: Antinociceptive activity in mouse at 2.5 to 10 mg/kg, sc measured after 6 hrs by tail immersion test; type: functional, organism-based; details: dose 2.5-10 mg/kg
[34] = Drug concentration in mouse plasma at 10 mg/kg, sc measured after 2 hrs by LC-MS/MS analysis; type: ADME, organism-based
[35] = biological target: T4, Neuropeptide FF receptor 2; experiment: Antagonist activity at human NPFFR2 expressed in CHO cell membrane assessed as inhibition of NPVF induced cAMP response at 5 uM incubated for 1 hr by Topcount counting method relative to control; type: functional, cell membranes; set-up: scale not given: the % may be the effect or the level left; details: filed as antagonist
[36] = biological target: T2, Neuropeptide FF receptor 1; experiment: Antagonist potency at human NPFFR1 expressed in CHO cell membrane assessed as inhibition of NPVF induced cAMP response incubated for 1 hr by Topcount counting method; type: functional, cell membranes; details: read-out: pA2 (converted)
[37] = Induction of motor coordination impairment in C57BL/6 mouse at 20 mg/kg, sc by rotarod assay; type: toxicity, organism-based; details: in vivo
[38] = Induction of motor coordination impairment in C57BL/6 mouse at 12 mg/kg, sc by rotarod assay; type: toxicity, organism-based; details: in vivo
[39] = Toxicity in C57BL/6N mouse assessed as induction of respiratory depression by measuring decrease in pulmonary rate at 4 to 36 mg/kg, sc by plethysmography; type: organism-based; details: in vivo, dose 4-36 mg/kg
[40] = biological target: T6, Kappa-type opioid receptor; experiment: Antagonist activity at human KOR expressed in HEK293 cells assessed as forskolin-induced cAMP accumulation in presence of IBMX; type: functional, cell-based; details: read-out: pA2 (converted)

T4 sequence (Q9Y5X5 whole entry): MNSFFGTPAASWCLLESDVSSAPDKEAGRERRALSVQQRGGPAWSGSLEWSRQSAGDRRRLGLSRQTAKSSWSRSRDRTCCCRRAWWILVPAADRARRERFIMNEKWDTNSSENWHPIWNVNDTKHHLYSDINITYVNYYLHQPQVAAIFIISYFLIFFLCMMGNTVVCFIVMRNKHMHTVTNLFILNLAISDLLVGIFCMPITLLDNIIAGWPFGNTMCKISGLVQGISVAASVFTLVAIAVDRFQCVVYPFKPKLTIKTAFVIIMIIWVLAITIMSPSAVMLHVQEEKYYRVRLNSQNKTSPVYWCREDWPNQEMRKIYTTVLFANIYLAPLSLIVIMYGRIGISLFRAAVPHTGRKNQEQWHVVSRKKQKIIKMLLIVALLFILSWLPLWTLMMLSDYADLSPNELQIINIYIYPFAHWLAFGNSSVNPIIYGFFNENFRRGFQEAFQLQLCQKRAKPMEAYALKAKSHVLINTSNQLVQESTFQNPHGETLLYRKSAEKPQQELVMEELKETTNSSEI
Chain of KiSS-1 receptor (Homo sapiens) (Q969F8 whole entry): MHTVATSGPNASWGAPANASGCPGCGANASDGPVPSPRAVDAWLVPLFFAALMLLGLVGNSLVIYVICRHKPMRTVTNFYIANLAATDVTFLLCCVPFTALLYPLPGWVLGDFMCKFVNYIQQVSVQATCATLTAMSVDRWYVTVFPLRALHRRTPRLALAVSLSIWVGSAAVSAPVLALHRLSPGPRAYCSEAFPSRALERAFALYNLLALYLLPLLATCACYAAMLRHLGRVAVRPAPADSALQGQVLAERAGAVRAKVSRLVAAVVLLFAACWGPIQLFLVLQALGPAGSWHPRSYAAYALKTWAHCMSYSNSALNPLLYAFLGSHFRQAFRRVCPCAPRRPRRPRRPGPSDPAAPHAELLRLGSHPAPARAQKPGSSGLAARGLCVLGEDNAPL
T2 sequence (Q9GZQ6 whole entry): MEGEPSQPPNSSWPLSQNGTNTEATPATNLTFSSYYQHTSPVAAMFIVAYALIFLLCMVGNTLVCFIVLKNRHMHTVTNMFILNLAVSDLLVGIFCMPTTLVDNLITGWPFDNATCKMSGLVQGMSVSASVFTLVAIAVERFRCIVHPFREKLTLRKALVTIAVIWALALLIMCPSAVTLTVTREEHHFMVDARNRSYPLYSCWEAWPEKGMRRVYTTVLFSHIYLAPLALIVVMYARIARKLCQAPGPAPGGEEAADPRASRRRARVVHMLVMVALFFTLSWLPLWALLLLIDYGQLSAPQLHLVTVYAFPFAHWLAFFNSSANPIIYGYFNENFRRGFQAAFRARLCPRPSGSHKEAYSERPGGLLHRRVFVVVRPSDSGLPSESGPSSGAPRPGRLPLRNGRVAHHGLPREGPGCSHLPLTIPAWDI
T3 sequence (P35372 whole entry): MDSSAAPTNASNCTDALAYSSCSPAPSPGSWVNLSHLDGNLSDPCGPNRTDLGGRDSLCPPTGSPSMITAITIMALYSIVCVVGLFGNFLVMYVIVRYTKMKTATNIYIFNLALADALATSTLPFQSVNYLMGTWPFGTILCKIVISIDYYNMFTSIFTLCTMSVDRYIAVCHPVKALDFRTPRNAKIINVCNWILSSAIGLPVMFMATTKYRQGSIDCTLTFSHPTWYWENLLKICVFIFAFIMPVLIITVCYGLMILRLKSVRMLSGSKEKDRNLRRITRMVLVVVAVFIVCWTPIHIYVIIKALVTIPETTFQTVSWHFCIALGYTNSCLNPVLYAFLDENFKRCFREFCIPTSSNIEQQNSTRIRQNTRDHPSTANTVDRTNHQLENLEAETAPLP
Chain of Nociceptin receptor (Homo sapiens) (P41146 whole entry): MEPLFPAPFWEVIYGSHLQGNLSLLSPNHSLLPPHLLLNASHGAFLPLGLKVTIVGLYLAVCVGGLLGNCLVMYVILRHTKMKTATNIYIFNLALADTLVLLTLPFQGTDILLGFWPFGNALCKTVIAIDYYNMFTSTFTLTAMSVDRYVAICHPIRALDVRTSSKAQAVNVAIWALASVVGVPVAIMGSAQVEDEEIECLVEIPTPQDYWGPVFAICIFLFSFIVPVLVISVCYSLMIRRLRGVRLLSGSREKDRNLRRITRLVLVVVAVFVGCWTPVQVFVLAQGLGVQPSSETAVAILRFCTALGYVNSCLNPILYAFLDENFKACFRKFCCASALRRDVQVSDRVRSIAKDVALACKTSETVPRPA
T6 sequence (P41145 whole entry): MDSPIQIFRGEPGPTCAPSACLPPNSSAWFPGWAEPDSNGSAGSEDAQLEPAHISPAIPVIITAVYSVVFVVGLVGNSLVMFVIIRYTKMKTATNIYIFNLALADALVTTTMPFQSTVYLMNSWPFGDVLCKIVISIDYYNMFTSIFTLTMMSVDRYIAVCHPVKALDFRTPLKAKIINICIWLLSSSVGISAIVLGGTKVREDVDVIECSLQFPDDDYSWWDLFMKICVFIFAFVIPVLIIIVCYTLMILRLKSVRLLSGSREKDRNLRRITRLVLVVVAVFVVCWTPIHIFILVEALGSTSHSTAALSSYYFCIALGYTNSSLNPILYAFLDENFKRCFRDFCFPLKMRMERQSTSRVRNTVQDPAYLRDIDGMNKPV
Chain of Delta-type opioid receptor (Homo sapiens) (P41143 whole entry): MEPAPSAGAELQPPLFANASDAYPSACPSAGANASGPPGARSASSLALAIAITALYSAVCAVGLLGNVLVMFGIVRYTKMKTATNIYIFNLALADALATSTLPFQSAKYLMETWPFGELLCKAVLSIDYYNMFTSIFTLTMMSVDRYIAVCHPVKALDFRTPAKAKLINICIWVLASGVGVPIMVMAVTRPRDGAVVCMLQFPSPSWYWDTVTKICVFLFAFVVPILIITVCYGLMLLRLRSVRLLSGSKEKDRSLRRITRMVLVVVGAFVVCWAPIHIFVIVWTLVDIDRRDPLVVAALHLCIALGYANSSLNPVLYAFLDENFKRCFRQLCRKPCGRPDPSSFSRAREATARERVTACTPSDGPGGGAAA

## Cc1cc(O)cc(C)c1C[C@H](N)C(=O)N(C)[C@H](C)C(=O)N[C@H]1Cc2c(ccc3ccccc23)CN(CCC(=O)N[C@@H](CCCN2CCC(Cc3ccccc3)CC2)C(=O)N[C@@H](Cc2ccccc2)C(N)=O)C1=O
[1]
  Activity: Non-Toxic
[2]
  Activity: Non-Toxic
[3]
  Activity: inactive
[4]
  Activity: 19%
[5]
  Activity: Non-Toxic
[6]
  Cmax: 805 nM
Mu-type opioid receptor [7]
  EC50: 0.0045 µM
[8]
  Activity: Non-Toxic
[9]
  Activity: 57%
[10]
  Activity: inactive
[11]
  Activity: inactive
Mus musculus [12]
  Activity: Active
Mu-type opioid receptor [13]
  Emax: 75%
[14]
  Activity: Non-Toxic
Mu-type opioid receptor [15]
  EC50: > 4 µM
[16]
  Ki: 0.032 µM
[17]
  Activity: Non-Toxic
[18]
  Tmax: 2.33 h
[19]
  Activity: Active
[20]
  Activity: Active
Mu-type opioid receptor [21]
  Emax: 24%
[22]
  Activity: Active
[23]
  Activity: inactive
[24]
  Activity: 26%
[25]
  Kb: 0.0457 µM
Mus musculus [26]
  Activity: inactive
[27]
  Activity: inactive
Mus musculus [28]
  Activity: Active
[29]
  Ki: 1.31 µM
[30]
  Activity: inactive
[31]
  half-life: 3.3 h
Mus musculus [32]
  Activity: Active
Mus musculus [33]
  Activity: Active
[34]
  concentration at 2 h: 837 nM
[35]
  Activity: 83%
[36]
  Kb: 2.45 µM

## CN(C)CCC=C1c2ccccc2CCc2ccccc21 [AMITRIPTYLINE]
[37]
  Activity: Toxic

## Cc1cc(O)cc(C)c1C[C@H](NC(=N)N)C(=O)N[C@H](CCCNC(=N)N)C(=O)N[C@H]1Cc2ccccc2CN(CCC(=O)N[C@@H](CCCN2CCC(Cc3ccccc3)CC2)C(=O)N[C@@H](Cc2ccccc2)C(N)=O)C1=O
[1]
  Activity: Non-Toxic
[2]
  Activity: Toxic
[3]
  Activity: inactive
[4]; filed as antagonist
  Activity: 93%
[6]
  Cmax: 887 nM
Mu-type opioid receptor [7]
  EC50: 0.0099 µM
[8]
  Activity: Non-Toxic
[9]
  Activity: 91%
[10]
  Activity: inactive
[11]
  Activity: inactive
[38]
  Activity: Non-Toxic
Mu-type opioid receptor [13]
  Emax: 66%
[14]
  Activity: Non-Toxic
Mu-type opioid receptor [15]
  EC50: 0.119 µM
[39]
  Activity: Non-Toxic
[16]
  Ki: 0.0047 µM
[18]
  Tmax: 1.67 h
[19]
  Activity: Active
[20]
  Activity: Active
Mu-type opioid receptor [21]
  Emax: 15%
[23]
  Activity: inactive
[24]; filed as antagonist
  Activity: 65%
[25]
  Kb: 0.11 µM
Mus musculus [26]
  Activity: inactive
[27]
  Activity: inactive
Mus musculus [28]
  Activity: Active
[29]
  Ki: 0.075 µM
[30]
  Activity: inactive
[31]
  half-life: 3.1 h
Mus musculus [32]
  Activity: Active
Mus musculus [33]
  Activity: Active
[34]
  concentration at 2 h: 593 nM
[35]
  Activity: 71%
[40]
  Kb: 0.000331 µM
[36]
  Kb: 0.24 µM
